The record followed here is paper PMC117120 (BMC Biochemistry, 2002).

Test [1] has as its target T1, V143A mutant mouse 5-HT3ASR (Mus musculus, UniProt P23979, V144A).
T1 sequence (P23979 24-483 isoform P23979-2 V144A): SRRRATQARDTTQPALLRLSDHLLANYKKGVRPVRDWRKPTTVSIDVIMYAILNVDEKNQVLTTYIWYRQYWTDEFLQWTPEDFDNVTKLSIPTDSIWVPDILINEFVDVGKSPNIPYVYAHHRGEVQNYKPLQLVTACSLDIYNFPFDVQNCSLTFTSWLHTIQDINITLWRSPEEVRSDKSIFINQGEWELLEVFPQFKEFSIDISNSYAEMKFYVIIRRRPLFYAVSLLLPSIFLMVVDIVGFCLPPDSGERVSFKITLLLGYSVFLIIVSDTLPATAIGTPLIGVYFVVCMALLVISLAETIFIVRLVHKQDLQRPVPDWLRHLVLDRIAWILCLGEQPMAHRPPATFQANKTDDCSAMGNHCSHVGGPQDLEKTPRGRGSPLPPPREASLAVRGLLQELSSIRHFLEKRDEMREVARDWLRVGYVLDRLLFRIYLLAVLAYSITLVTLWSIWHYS
The test can be described thus: biochemical.

Test [2] concerns the target T2, Q150A mutant mouse 5-HT3ASR (Mus musculus, UniProt P23979, Q151A).
T2 sequence (P23979 24-483 isoform P23979-2 Q151A): T1 sequence (P23979 24-483 isoform P23979-2 V144A) with A121V, Q128A
In words: biochemical.

Test [3] has as its target T3, E148A mutant mouse 5-HT3ASR (Mus musculus, UniProt P23979, E149A).
T3 sequence (P23979 24-483 isoform P23979-2 E149A): T1 sequence (P23979 24-483 isoform P23979-2 V144A) with A121V, E126A
In words: biochemical.

In test [4] the target is T4, Y152A mutant mouse 5-HT3ASR (Mus musculus, UniProt P23979, Y153A).
T4 sequence (P23979 24-483 isoform P23979-2 Y153A): T1 sequence (P23979 24-483 isoform P23979-2 V144A) with A121V, Y130A
In words: Inhibition of [^3H]granisetron binding, Y152A receptor. To be noted: for relative increase in Ki, mutant vs wildtype: Y152A vs wildtype.

Test [5] deals with T5, R146A mutant mouse 5-HT3ASR (Mus musculus, UniProt P23979, R147A).
T5 sequence (P23979 24-483 isoform P23979-2 R147A): T1 sequence (P23979 24-483 isoform P23979-2 V144A) with A121V, R124A
The test can be described thus: biochemical.

Test [6] has as its target T6, H145A mutant mouse 5-HT3ASR (Mus musculus, UniProt P23979, H146A).
T6 sequence (P23979 24-483 isoform P23979-2 H146A): T1 sequence (P23979 24-483 isoform P23979-2 V144A) with A121V, H123A
In words: biochemical.

Numbering of substitutions follows the chain as printed. Several values for one entry are separate records, joined by “and”; a condition that tells them apart may be missing. Equal entries are not always repeated.

With `COc1cc2c3cc1Oc1cc(ccc1O)C[C@@H]1c4c(cc(OC)c(O)c4Oc4ccc(cc4)C[C@@H]3N(C)CC2)CC[N+]1(C)C` [d-tc, d-tubocurarine], the Ki (usually the equilibrium dissociation constant of an inhibitor or competing ligand from its target) stood at 22 ± 2.6 nM in test [1]; 9.3 ± 1.3 nM in test [2]; 14 ± 1.7 nM in test [3]; 60 ± 19 nM in test [4]; 29 ± 4.9 nM in test [5]; 19 ± 2.6 nM in test [6]. Moreover, in test [4], the “relative increase in Ki, mutant vs wildtype” value was 10.0 ± 2.3 fold and 10 fold.

Take `c1ccc(Cn2c(N3CCNCC3)nc3ccccc32)cc1` [lerisetron]: the Ki worked out at 1.5 ± 0.41 nM in test [1]; 1.1 ± 0.21 nM in test [2]; 2.8 ± 0.53 nM in test [3]; 150 ± 36 nM in test [4]; 2.3 ± 0.31 nM in test [5]; 0.42 ± 0.04 nM in test [6]. Besides, in test [4], the “relative increase in Ki, mutant vs wildtype” value was 190 ± 43 fold and 190 fold.
